Measurements from US9855273B2, “Combination therapy for MDS” (priority 2013, dated 2018).

What was measured:
normal CD34+ cells = test: Colony formation in methylcellulose, normal CD34+ cells
Method: (§2) The effect of IRAK-Inh on leukemic progenitor function was evaluated in methylcellulose containing IRAK-Inh. […] As an alternative approach, MDS/AML cells were pre-treated with IRAK-Inh for 24 hours and then plated in methylcellulose.

MDS/AML cell lines = test: Colony formation in methylcellulose, MDS/AML cell lines; type: cell-based, human
Method: as §2

MDSL cells [1] = test: Cell cycle analysis by BrdU/7AAD; type: cell-based, human; details: 10 μM, up to 6 days
Method: MDS/AML cell lines with hyperphosphorylated IRAK1 (FIG. 1D) were evaluated for sensitivity to IRAK-Inh. MDS/AML cell lines exposed to increasing concentration of IRAK-Inh were cultured for up to 6 days in vitro (FIG. 3A). […] In support of this observation, the inhibitory effect of IRAK-Inh on the cell lines correlated with the level of phosphorylated IRAK1 (R2=0.36; FIG. 3B). In parallel, cell viability was examined after 48 hrs of treatment with the IRAK-Inh. […] To investigate whether IRAK-Inh affects cell cycle progression, MDSL cells were treated with 10 μM IRAK-Inh for up to 6 days and evaluated by BrdU/7AAD staining (FIG. 3D).

MDSL cells [2] = test: MDSL xenograft, cells pre-treated in vitro, NSGS mice; type: in vivo
Method: Xenograftment of NOD/SCID-IL2Rγ(NSG) and NSG-hSCF/hGM-CSF/hIL3 (NSGS) MDSL cells (1×10^6-5×10^6) were injected into the tail veins of 8-week old sublethally irradiated ([…]) NSG or NSG animals engineered to express human SCF, GM-CSF, and IL3 (NSGS) as previously described (Wunderlich et al., 2010). Mice were monitored by performing complete blood counts (Drew Hemavet 950FS). Following red cell lysis, human MDSL cells were identified by hCD45-FITC staining. In vivo delivery of IRAK-Inh approach is adapted from previous reports (Yang et al., 2011): IRAK-Inh was diluted in DMSO (5 mM) and further dissolved in sterile phosphate buffered saline (PBS; pH 7.2). Animals were injected i.p. with 2.12 mg/kg IRAK-Inh 3× weekly.
To determine whether IRAK-Inh can delay human MDS-like disease in vivo, MDSL were pre-treated with IRAK-Inh (10 μM) for 24 hrs in vitro and subsequently injected intravenously (i.v.) into NSG (5×10^6 cells) and NSGS (1×10^6 cells) recipient mice (FIG. 4A). This approach permitted us to evaluate the cell autonomous effect of IRAK-Inh on MDS cell viability and engraftment without altering endogenous IRAK1 function in the mouse.
Moreover, we investigated whether combined IRAK1 and BCL2 inhibition could delay human MDS-like disease in vivo. MDSL cells were treated with IRAK-Inh (10 μM) and/or ABT-263 (0.1 μM) for 48 hrs in vitro and subsequently injected i.v. into NSGS mice (FIG. 4A).

primary AML marrow cells = test: Growth/viability of primary AML marrow cells; type: cell-based, human
Method: For in vitro growth assays, cell expansion in liquid culture was determined based on trypan blue exclusion using an automated cell counter (BioRad TC10). For experiments beyond 48 hrs, cells were replenished with fresh media and drug every second day. For primary patient marrow cells, cell were treated with a single inhibitor dose and counted 24 and 48 hours later.
AML patient samples were acquired following informed consent and under the direction of IRB approved protocols.

IRAK4 = IRAK4 (Homo sapiens, UniProt Q9NWZ3); details: read-out: IC50 IRAK4; Powers et al., 2006; cited from earlier work
IRAK4, sequence (Q9NWZ3 whole entry, species assumed): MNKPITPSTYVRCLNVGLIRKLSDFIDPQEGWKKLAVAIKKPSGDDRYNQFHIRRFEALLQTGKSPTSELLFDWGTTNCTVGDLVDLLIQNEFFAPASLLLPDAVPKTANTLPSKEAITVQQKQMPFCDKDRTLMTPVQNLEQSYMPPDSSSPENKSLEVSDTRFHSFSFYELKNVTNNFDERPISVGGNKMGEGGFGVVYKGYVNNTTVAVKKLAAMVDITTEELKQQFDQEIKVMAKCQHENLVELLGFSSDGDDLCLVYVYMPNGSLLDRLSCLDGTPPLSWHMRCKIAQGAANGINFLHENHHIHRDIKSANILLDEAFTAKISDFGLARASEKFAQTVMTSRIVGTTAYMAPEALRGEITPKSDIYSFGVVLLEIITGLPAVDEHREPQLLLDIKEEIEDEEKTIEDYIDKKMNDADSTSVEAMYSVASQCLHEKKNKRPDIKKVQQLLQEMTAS

pp60^Src = pp60^Src (Homo sapiens, UniProt P12931); details: read-out: IC50 pp60Src; Powers et al., 2006; cited from earlier work
pp60^Src, sequence (P12931 whole entry): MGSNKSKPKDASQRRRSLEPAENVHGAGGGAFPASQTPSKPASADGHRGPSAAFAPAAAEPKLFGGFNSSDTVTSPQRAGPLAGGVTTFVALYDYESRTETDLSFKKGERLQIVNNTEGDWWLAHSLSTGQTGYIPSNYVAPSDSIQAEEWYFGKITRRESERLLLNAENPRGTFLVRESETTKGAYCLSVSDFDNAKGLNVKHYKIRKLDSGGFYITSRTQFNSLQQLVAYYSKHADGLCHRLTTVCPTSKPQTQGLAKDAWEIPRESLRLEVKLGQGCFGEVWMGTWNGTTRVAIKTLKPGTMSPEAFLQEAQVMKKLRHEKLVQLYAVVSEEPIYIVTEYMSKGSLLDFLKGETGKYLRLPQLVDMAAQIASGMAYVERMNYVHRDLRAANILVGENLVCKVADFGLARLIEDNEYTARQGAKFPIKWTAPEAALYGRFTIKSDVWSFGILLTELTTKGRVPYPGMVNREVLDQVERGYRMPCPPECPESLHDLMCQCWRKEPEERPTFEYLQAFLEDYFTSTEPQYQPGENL

TRAF6/NF-κB signaling = system: TRAF6/NF-κB signaling
Method: (§1) Total protein lysates were obtained from cells by lysing the samples in cold RIPA buffer (50 mM Tris-HCl, 150 mM NaCl, 1 mM EDTA, 1% Triton X-100 and 0.1% SDS), in the presence of PMSF, sodium orthovanadate, protease and phosphatase inhibitors. After being re-suspended in RIPA cells were briefly sonicated. Protein concentration was evaluated by a BCA assay (Pierce). For immunoprecipitation, TRAF6 or IRAK1 antibodies (2 μg) were added to cell lysates (10 mg) for 3 h at 4° C. and captured by the addition of Protein A/G Plus beads (sc-2003; Santa Cruz) as described before (Starczynowski et al., 2011). The immune complexes were washed with lysis buffer followed by the addition of SDS sample buffer. The bound proteins were separated by SDS-polyacrylamide gel electrophoresis, transferred to nitrocellulose membranes, and analyzed by immunoblotting. Western blot analysis was performed with the following antibodies: TRAF6 (sc-7221; Santa Cruz), IRAK1 (sc-7883; Santa Cruz), ubiquitin (sc-8017; Santa Cruz), IKKβ (2370; Cell Signaling Technology), GAPDH (5174; Cell Signaling Technology), p38 MAPK (9212; Cell Signaling Technology), phopho-p38 MAPK (4631; Cell Signaling Technology), phospho-IKKα/β (2697; Cell Signaling Technology), phospho-IRAK1 (S376) (PAB0497; Abnova), phospho-IRAK1 (T209) (A1074; AssaybioTech), phospho-ERK (4695; Cell Signaling Technology), Lck (2752; Cell Signaling Technology), phospho-Lck (Tyr505) (2751; Cell Signaling Technology), IRAK4 (4363; Cell Signaling Technology), phospho-IRAK4 (Thr345/Ser346) (7652; Cell Signaling Technology), Src (2102; Cell Signaling Technology), Phospho-Src (Tyr416) (2113; Cell Signaling Technology), BCL-2 (2870; Cell Signaling Technology) and Actin (4968; Cell Signaling Technology).

BCL2 = details: 10 μM
Method: as §1

IRAK1 (pIRAK1T209) = IRAK1 (pIRAK1T209) (Homo sapiens, UniProt P51617)
IRAK1 (pIRAK1T209), sequence (P51617 whole entry): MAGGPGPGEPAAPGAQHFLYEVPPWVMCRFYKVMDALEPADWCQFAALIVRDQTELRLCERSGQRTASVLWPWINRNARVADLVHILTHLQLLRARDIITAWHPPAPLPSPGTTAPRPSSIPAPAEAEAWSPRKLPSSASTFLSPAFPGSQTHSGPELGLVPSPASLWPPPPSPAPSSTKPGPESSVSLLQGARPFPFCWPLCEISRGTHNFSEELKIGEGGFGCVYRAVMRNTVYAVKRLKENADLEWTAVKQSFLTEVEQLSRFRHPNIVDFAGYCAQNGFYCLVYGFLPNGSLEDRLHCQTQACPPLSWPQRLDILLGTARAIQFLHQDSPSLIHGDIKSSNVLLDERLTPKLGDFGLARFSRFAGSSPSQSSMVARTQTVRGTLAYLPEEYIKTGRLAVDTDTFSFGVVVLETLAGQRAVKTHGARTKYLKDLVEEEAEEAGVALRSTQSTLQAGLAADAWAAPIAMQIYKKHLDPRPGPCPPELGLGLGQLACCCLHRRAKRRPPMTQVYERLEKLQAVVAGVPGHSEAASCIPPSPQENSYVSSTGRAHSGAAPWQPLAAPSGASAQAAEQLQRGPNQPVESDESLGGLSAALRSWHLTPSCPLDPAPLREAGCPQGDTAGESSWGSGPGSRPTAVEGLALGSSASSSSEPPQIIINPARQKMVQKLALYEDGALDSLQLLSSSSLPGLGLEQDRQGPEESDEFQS
Method: as §1

SMILES: O=C(Nc1nc2ccccc2n1CCN1CCOCC1)c1cccc([N+](=O)[O-])c1 [IRAK-Inh, N-(2-morpholinylethyl)-2-(3-nitrobenzoylamido)-benzimidazole]
- control CD34+ cell progenitor function (normal CD34+ cells): did not affect
- colony formation, methylcellulose containing inhibitor (normal CD34+ cells; normal CD34+): equivalent number of colonies
- colony formation, methylcellulose containing inhibitor (MDS/AML cell lines; all MDS/AML cells, continuous treatment): significantly fewer colonies
- colony formation after transient exposure (MDS/AML cell lines; pre-treated 24 hr, 10 μM, then plated): significantly fewer colonies
- proportion in G0/G1 (MDSL cells [1]): 62.7%±1.1
- proportion of sub-G0 cells (MDSL cells [1]): 5.4%±0.3
- viable cells in S phase (MDSL cells [1]): 4.3%±0.4
- median survival (MDSL cells [2]; MDSL pre-treated 10 μM 24 hrs, 1×10^6 cells i.v., control 29 days): 38 days
- median survival (MDSL cells [2]; MDSL treated in vitro with IRAK-Inh 10 μM and/or ABT-263 0.1 μM, DMSO 28 days): ~35 days
- red blood cell numbers, hemoglobin, hematocrit and platelets (MDSL cells [2]; mice transplanted with pre-treated MDSL cells): significantly improved
- growth of AML marrow cells (primary AML marrow cells): continued to grow similar to control-treated cells
- viability of primary AML marrow cells (primary AML marrow cells): only modestly reduced
- IC50 (IRAK4): 200 nM
- IC50 (pp60^Src): > 10000 nM
- p100/p52 processing (non-canonical NF-κB) (TRAF6/NF-κB signaling; 10 μM for 24 hrs): completely blocked
- pIKKα/IKKβ (TRAF6/NF-κB signaling; 10 μM for 24 hrs, vector- and TRAF6-expressing cells): reduced pIKKα/IKKβ
- polyubiquitinated TRAF6 (TRAF6/NF-κB signaling; THP1, 10 μM, 24 hrs): reduced polyubiquitinated TRAF6
- BCL2 expression (BCL2): increased in several of the cell lines examined
- phosphorylated IRAK1 reduced by (IRAK1 (pIRAK1T209); 10 μM, 24 hrs, cell lines and patient marrow cells): ~70%
- phosphorylation and K63-linked ubiquitination of immunoprecipitated IRAK1 (IRAK1 (pIRAK1T209); THP1, 10 μM, 24 hrs): reduced phosphorylation and K63-linked ubiquitination
- pIRAK1T209 inhibited by (IRAK1 (pIRAK1T209); cells with lentiviral IRAK1 or TRAF6 overexpression): ~50%
- kinases with structural homology to IRAK1 targeted in cells (IRAK1 (pIRAK1T209); malignant myeloid cells, IRAK1, IRAK4, Src, Lck immunoblots): only IRAK1 is a target
